How the values were obtained:
γH2AX = experiment: MultiFlow DNA Damage Kit flow cytometry, γH2AX in TK6 cells with rat liver S9; type: cell-based; settings: 4 hr exposure with 2% rat liver S9
[1] = Precipitation/solubility limit of the top test concentration; settings: for top non-precipitating conc.: precipitation in 100× stock solution or upon addition to culture medium
TK6 cells [2] = experiment: MultiFlow flow cytometry, polyploidy; type: cell-based; settings: TK6 cells with rat liver S9
Phospho-Histone H3 = experiment: MultiFlow DNA Damage Kit flow cytometry, phospho-histone H3; type: cell-based; settings: TK6 cells with rat liver S9; effect particularly evident at 24 hrs for PhIP
p53 = type: cell-based; settings: 24 hr time point; TK6 cells, 4 hr exposure with 2% rat liver S9
HepG2 cells = settings: cited from earlier work
TK6 cells [3] = experiment: Cytotoxicity by relative nuclei counts; type: cell-based; settings: TK6 cells with rat liver S9
male rat kidney = settings: due to α2μ-globulin nephropathy; ref Kirkland et al., 2015; cited from earlier work

For `O=[N+]([O-])c1ccc2c(c1)Cc1ccccc1-2` [2-Nitrofluorene], the γH2AX-associated fluorescence response (γH2AX; 4 hr time point) was “robust responses” and the γH2AX-associated fluorescence response (γH2AX; 24 hr time point) was “considerably reduced”.

In the case of `Cn1c(N)nc2ncc(-c3ccccc3)cc21` [2-amino-1-methyl-6-phenylimidazo [4,5-b]pyridine], the top non-precipitating conc. [1] is reported as 250 µM, the polyploid cells (TK6 cells [2]) is reported as “not induced” and the “proportion of mitotic (p-H3 positive) cells” value (Phospho-Histone H3) is reported as “concentration-dependent reductions”. For the same compound, the p53 response (p53) was “higher p53 responses at 24 hr relative to the 4 hr time point”, the γH2AX-associated fluorescence response (γH2AX; 4 hr time point) was “concentration-related increases” and the γH2AX-associated fluorescence response (γH2AX; 24 hr time point) was “concentration-related increases”.

With `Nc1ccc2cc3ccccc3cc2c1` [2-Aminoanthracene] the top non-precipitating conc. [1] was 500 µM.

In the case of `Cc1cc2ncccc2c2nc(N)n(C)c12` [3,4-Dimethylimidazo[4,5-f]quinolin-2-amine], the “induction of MN in HepG2 cells” value (HepG2 cells) is given as “weak inducer”.

In the case of `CC(=O)Nc1ccc2c(c1)Cc1ccccc1-2` [2-Acetylaminofluorene], the top non-precipitating conc. [1] is reported as 250 µM.

For Tunicamycin, the “top conc. due to solubility” value [1] was 500 µM.

In the case of `CN(C)P(=O)(N(C)C)N(C)C` [Hexamethylphosphoramide], the “cytotoxicity (reductions to RNC)” value (TK6 cells [3]) is reported as “no evidence of cytotoxicity” and the “proportion of mitotic (p-H3 positive) cells” value (Phospho-Histone H3) is reported as “no evidence of cytotoxicity”.

For `c1ccc2c(c1)cc1ccc3cccc4ccc2c1c34` [Benzo[a]pyrene], the top non-precipitating conc. [1] was 250 µM.

For `CCN(CC)N=O` [N-Nitrosodiethylamine (DEN), N-Nitrosodiethylamine], the “cytotoxicity (reductions to RNC)” value (TK6 cells [3]) was “no evidence of cytotoxicity” and the “proportion of mitotic (p-H3 positive) cells” value (Phospho-Histone H3) was “no evidence of cytotoxicity”.

For `C=C(C)[C@H]1CC=C(C)CC1` [D-Limonene], the tumor finding (male rat kidney) is given as “male rat kidney tumors”.

Reference: publication PMC4980245 (Environmental and molecular mutagenesis, 2016)
